# Results published in the kinase profiling compilation of Christmann-Franck et al. (2016).
# What was measured:
# Assay in all cases: KINOMEscan competition binding
# Conditions in all cases: compound 10.0 µM
# [1] = molecular target: BRAF (human) (UniProt P15056)
# [2] = molecular target: PAK2 (human) (UniProt Q13177)
# [3] = molecular target: MYO3B (human) (UniProt Q8WXR4)
# [4] = tested on: MET (human), P08581 [M1250T]
# [5] = molecular target: MAP3K7 (human) (UniProt O43318)
# [6] = molecular target: MAP2K3 (human) (UniProt P46734)
# [7] = molecular target: RIOK3 (human) (UniProt O14730)
# [8] = molecular target: PIK3CB (human) (UniProt P42338)
# [9] = molecular target: FLT3 (human) (UniProt P36888)
# [10] = molecular target: PIK3CA (human) (UniProt P42336)
# [11] = molecular target: PRKCQ (human) (UniProt Q04759)
# [12] = molecular target: PIM2 (human) (UniProt Q9P1W9)
# [13] = molecular target: ULK1 (human) (UniProt O75385)
# [14] = molecular target: TYK2 JH1 catalytic (human) (UniProt P29597)
# [15] = molecular target: NTRK2 (human) (UniProt Q16620)
# [16] = molecular target: MAP3K2 (human) (UniProt Q9Y2U5)
# [17] = molecular target: HUNK (human) (UniProt P57058)
# [18] = tested on: RET (human), P07949 [M918T]
# [19] = molecular target: CDC42BPB (human) (UniProt Q9Y5S2)
# [20] = tested on: KIT (human), P10721 [V559D/T670I]
# Sequence of KIT (human), P10721 [V559D/T670I] (P10721 whole entry V559D/T670I, looked up): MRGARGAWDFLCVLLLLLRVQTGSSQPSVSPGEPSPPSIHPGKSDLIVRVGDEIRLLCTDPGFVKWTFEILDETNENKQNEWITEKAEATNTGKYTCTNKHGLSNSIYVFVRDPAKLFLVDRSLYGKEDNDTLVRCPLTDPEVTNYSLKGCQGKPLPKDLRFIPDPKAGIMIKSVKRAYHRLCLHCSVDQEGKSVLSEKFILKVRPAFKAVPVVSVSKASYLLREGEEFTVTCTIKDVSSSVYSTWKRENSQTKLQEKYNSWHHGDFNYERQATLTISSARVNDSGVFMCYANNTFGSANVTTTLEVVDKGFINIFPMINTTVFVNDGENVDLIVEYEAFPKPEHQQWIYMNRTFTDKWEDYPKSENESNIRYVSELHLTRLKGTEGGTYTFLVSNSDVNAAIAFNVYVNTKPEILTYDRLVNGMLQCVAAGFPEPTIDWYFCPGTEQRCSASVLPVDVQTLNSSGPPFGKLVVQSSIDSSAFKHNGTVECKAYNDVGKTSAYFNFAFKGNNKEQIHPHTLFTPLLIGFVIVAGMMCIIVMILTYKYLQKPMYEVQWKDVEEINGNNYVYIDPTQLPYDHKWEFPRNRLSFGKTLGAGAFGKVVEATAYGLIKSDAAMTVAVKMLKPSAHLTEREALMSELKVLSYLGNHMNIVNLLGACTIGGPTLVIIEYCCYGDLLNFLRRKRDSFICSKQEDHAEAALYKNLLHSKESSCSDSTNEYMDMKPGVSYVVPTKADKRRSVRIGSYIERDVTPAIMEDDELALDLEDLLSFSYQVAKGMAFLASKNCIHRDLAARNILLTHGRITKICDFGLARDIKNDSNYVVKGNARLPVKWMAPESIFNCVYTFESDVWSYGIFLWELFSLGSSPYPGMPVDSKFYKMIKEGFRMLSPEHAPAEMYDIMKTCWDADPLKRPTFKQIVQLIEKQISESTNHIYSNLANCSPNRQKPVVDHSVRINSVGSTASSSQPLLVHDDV
# [21] = molecular target: EPHB6 (human) (UniProt O15197)
# [22] = molecular target: MARK3 (human) (UniProt P27448)
# [23] = molecular target: INSR (human) (UniProt P06213)
# [24] = molecular target: NEK7 (human) (UniProt Q8TDX7)
# [25] = molecular target: ADCK4 (human) (UniProt Q96D53)
# [26] = molecular target: BMPR2 (human) (UniProt Q13873)
# Sequence of BMPR2 (human) (Q13873 whole entry, looked up): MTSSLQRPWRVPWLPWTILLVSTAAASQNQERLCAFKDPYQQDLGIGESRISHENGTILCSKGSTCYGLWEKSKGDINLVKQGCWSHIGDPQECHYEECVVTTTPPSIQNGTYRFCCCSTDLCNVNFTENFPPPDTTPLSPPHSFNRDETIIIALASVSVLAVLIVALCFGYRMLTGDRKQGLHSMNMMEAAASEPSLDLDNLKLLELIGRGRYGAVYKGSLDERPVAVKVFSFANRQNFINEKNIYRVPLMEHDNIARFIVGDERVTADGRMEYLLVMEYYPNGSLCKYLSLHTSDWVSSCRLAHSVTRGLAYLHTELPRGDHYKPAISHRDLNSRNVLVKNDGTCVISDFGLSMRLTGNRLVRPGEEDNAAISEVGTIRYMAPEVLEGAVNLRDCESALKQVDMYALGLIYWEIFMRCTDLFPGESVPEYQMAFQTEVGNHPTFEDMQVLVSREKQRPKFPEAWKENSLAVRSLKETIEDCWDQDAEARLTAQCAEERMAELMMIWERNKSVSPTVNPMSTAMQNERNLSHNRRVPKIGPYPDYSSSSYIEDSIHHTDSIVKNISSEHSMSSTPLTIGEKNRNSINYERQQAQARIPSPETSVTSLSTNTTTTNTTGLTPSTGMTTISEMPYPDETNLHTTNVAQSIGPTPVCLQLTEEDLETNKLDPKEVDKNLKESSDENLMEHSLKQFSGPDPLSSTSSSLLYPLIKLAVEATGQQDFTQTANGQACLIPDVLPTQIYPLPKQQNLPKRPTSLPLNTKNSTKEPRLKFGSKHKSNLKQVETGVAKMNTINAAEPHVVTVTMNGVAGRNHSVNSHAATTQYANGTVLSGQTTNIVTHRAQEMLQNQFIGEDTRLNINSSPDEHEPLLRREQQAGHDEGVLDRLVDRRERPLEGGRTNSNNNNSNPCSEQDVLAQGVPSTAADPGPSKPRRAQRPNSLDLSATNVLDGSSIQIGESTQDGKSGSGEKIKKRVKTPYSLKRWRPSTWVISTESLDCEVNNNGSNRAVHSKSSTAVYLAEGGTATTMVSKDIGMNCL
# [27] = molecular target: MELK (human) (UniProt Q14680)
# [28] = molecular target: CDK3 (human) (UniProt Q00526)
# [29] = molecular target: GRK7 (human) (UniProt Q8WTQ7)
# [30] = molecular target: CDKL2 (human) (UniProt Q92772)
# [31] = molecular target: BMP2K (human) (UniProt Q9NSY1)
# Sequence of BMP2K (human) (Q9NSY1 whole entry, looked up): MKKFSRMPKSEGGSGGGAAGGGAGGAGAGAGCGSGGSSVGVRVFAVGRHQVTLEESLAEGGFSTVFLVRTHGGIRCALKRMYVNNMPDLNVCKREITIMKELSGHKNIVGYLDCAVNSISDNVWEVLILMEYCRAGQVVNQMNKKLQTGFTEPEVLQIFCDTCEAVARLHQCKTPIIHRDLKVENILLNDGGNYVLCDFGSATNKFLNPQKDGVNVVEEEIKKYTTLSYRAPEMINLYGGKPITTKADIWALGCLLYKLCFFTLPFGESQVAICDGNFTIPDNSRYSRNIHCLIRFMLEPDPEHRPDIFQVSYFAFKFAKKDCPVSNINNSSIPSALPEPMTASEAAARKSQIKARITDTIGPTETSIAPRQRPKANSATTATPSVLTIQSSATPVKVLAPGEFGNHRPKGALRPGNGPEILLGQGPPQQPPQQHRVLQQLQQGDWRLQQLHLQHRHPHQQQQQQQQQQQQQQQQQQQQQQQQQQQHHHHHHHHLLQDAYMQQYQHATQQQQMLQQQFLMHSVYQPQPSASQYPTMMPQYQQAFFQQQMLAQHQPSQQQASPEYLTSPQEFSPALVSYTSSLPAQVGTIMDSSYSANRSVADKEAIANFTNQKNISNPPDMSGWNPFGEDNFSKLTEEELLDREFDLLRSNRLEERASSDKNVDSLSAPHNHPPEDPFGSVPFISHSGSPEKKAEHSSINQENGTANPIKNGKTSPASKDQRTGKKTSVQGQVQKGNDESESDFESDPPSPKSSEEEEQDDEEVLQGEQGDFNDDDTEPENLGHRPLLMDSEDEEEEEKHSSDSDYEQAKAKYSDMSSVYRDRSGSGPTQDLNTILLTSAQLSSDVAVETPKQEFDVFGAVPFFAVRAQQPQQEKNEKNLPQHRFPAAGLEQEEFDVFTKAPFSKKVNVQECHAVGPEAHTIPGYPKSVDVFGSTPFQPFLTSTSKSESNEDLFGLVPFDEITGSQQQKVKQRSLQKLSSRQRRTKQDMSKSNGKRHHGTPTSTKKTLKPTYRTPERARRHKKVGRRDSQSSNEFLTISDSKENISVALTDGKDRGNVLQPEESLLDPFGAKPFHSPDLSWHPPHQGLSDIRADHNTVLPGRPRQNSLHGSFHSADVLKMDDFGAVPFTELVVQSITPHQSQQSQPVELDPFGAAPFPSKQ
# [32] = tested on: FLT3 (human), P36888 [D835H]
# [33] = molecular target: PKN2 (human) (UniProt Q16513)
# [34] = molecular target: CDK9 (human) (UniProt P50750)
# [35] = molecular target: SIK1 (human) (UniProt P57059)
# [36] = molecular target: PRKG1 (human) (UniProt Q13976)
# Sequence of PRKG1 (human) (Q13976 whole entry, looked up): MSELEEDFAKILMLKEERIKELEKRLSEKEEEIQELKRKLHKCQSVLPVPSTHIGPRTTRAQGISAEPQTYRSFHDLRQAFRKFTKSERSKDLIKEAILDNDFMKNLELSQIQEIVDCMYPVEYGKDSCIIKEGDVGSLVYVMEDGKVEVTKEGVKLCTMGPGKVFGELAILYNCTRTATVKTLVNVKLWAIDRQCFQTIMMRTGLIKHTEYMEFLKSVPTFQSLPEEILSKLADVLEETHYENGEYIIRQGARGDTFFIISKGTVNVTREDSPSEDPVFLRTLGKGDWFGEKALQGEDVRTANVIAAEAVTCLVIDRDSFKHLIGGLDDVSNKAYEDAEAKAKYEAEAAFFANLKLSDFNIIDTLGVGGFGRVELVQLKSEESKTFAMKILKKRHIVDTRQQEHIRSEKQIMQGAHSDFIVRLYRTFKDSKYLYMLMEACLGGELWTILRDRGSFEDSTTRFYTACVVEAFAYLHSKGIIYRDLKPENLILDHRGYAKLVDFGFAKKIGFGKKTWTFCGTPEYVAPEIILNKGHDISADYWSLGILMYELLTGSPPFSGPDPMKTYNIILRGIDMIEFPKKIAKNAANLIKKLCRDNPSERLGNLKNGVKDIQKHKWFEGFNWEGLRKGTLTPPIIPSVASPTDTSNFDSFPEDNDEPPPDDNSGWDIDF
# [37] = molecular target: STK35 (human) (UniProt Q8TDR2)
# Sequence of STK35 (human) (Q8TDR2 whole entry, looked up): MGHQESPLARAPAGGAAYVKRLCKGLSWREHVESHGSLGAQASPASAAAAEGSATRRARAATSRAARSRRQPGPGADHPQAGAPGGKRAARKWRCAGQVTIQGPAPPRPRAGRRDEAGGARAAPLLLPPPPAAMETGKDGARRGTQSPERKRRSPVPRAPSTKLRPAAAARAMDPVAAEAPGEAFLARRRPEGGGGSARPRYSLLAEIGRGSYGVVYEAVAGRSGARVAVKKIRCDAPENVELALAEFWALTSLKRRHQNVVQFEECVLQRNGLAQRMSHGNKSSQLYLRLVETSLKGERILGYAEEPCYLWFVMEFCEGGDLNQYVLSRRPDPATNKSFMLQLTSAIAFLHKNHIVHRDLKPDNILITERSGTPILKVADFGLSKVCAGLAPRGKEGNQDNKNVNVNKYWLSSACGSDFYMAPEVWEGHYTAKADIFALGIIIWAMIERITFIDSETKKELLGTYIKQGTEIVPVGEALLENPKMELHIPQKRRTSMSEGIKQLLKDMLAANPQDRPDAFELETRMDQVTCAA
# [38] = molecular target: SRC (human) (UniProt P12931)
# [39] = molecular target: PKN1 (human) (UniProt Q16512)
# [40] = molecular target: RET (human) (UniProt P07949)
# [41] = molecular target: EPHB4 (human) (UniProt P54760)
# [42] = molecular target: ZAP70 (human) (UniProt P43403)
# Sequence of MAP3K7 (human) (O43318 whole entry, looked up): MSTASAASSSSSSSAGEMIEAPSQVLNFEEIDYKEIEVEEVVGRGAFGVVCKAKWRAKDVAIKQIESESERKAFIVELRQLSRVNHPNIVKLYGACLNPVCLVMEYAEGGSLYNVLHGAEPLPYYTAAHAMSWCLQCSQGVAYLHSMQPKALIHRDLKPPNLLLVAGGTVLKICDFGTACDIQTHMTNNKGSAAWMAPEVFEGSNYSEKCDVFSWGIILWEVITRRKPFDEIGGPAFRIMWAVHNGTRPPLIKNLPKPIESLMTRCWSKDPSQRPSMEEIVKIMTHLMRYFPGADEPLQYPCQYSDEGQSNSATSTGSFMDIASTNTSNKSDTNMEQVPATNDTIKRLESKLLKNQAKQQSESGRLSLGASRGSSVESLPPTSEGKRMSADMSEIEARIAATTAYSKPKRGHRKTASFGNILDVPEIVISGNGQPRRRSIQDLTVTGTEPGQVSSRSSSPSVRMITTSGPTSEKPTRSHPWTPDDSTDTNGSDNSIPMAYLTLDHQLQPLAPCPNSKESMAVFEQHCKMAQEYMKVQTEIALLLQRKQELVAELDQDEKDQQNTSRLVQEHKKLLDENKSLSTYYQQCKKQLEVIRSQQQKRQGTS
smiles,measurement,setting,value
O=C1Nc2cc(Br)ccc2/C1=C1/Nc2ccccc2/C1=N\O,"kinase still bound, per cent of control",[1],89%
same,"kinase still bound, per cent of control",[2],40%
same,"kinase still bound, per cent of control",[3],100%
same,"kinase still bound, per cent of control",[4],87%
same,"kinase still bound, per cent of control",[5],20%
same,"kinase still bound, per cent of control",[6],33%
same,"kinase still bound, per cent of control",[7],8.4%
same,"kinase still bound, per cent of control",[8],88%
same,"kinase still bound, per cent of control",[9],0.05%
same,"kinase still bound, per cent of control",[10],93%
same,"kinase still bound, per cent of control",[11],55%
same,"kinase still bound, per cent of control",[12],52%
same,"kinase still bound, per cent of control",[13],7.3%
same,"kinase still bound, per cent of control",[14],3%
same,"kinase still bound, per cent of control",[15],7.2%
same,"kinase still bound, per cent of control",[16],56%
same,"kinase still bound, per cent of control",[17],79%
same,"kinase still bound, per cent of control",[18],0%
same,"kinase still bound, per cent of control",[19],90%
same,"kinase still bound, per cent of control",[20],0%
same,"kinase still bound, per cent of control",[21],0.3%
same,"kinase still bound, per cent of control",[22],28%
same,"kinase still bound, per cent of control",[23],72%
same,"kinase still bound, per cent of control",[24],100%
same,"kinase still bound, per cent of control",[25],57%
same,"kinase still bound, per cent of control",[26],46%
same,"kinase still bound, per cent of control",[27],8.7%
same,"kinase still bound, per cent of control",[28],75%
same,"kinase still bound, per cent of control",[29],58%
same,"kinase still bound, per cent of control",[30],6.1%
same,"kinase still bound, per cent of control",[31],0.65%
same,"kinase still bound, per cent of control",[32],1.8%
same,"kinase still bound, per cent of control",[33],29%
same,"kinase still bound, per cent of control",[34],26%
same,"kinase still bound, per cent of control",[35],2.6%
same,"kinase still bound, per cent of control",[36],100%
same,"kinase still bound, per cent of control",[37],60%
same,"kinase still bound, per cent of control",[38],0.15%
same,"kinase still bound, per cent of control",[39],79%
same,"kinase still bound, per cent of control",[40],0%
same,"kinase still bound, per cent of control",[41],48%
same,"kinase still bound, per cent of control",[42],90%
